Experimental data: patent US20110098255A1, “COMBINATION OF A PARP INHIBITOR AND AN AKT KINASE ACTIVATING COMPOUND” (priority 2008, published 2011)

What was measured:
[1] = test system: cuprisone induced changes in the central nervous system of C57BL/6 mice (corpus callosum demyelinization); assay: Cuprizone induced demyelinization determined with MRI (CC/control tube intensity); assay type: in vivo; conditions: cuprizone-treated mice, after 5 weeks of treatment, i.p.
Procedure: (§1) During the experiment C57BL/6 mice were kept in a standard environment, they were given tap water and ground mice feed ad libitum. The mice were taken care of according to ethical requirements relating to treatment of animals.
(§2) According to a previously described method [Journal of Neuroimmunology 92 (1998): 38-49], 7-8 week old C57BL/6 male mice were treated for 6 weeks per os with cuprizone (Sigma, Steinheim, Germany). The mice were divided into 5 groups with 8 mice in each group.
(§3) Oxidation of cuprizone was prevented by giving fresh feed to the mice every day. PARP inhibitors and/or Akt kinase activating agents were placed in physiological saline solution, filtered to sterility, and administered intraperitoneally in the proper dosage. […] Control animals were given i.p. an amount of sterile physiological solution corresponding to their bodymass.
(§4) It is known from the literature (NMR Biomed. 2005 Oct.; 18(6):395-403) that T1 and T2 MRI image intensity correlates with the degradation and regeneration of the myelin sheath in this model. Oedema and hydrocephalus registers as hyperintensity on the T2 image. For quantification of hydrocephalus MRI is more suitable than histology because during fixation and histological processing there is significant shrinkage and volume degradation (Exp. Neurology 118 (1992): 1-6). MRI micro image technique makes it possible to study the above changes in vivo for weeks.
(§5) After three weeks, the mice were placed into the NMR instrument in narcosis every week [5 mg/kg bodymass diazepam (Seduxen) and 90 mg/kg bodymass ketamine (Calypsol, Richter Gedeon Zrt., Budapest) intraperitoneally]. T1 and T2 images were acquired with Varian ^uNITYIINOVA NMR spectrometer from the bulbus olfactorius to the beginning of the spinal cord in transverse sections of 1 mm thickness. Signal intensity of a glass tube with 1 mm internal diameter, which was filled with 9:1 water-glycerin mixture, was used as outer control. The development and size of demyelinization was determined by comparing average signal intensity detected at the area of the corpus callosum with the average intensity of the outer control. Average signal intensity of the corpus callosum (CC) was determined by an expert who was blind to the experiment from the section 1 mm posterior to the bregma by manually marking the region of interest (ROI), i.e. the corpus callosum (CC). Intensity of ROI was normalized to the intensity of the control tube.

[2] = test system: cuprisone induced changes in the central nervous system of C57BL/6 mice (hydrocephalus); assay: Cuprizone induced hydrocephalus determined with MRI (chamber/brain volume ratio); assay type: in vivo; conditions: cuprizone-treated mice, after 5 weeks of treatment, i.p.
Procedure: as §1, §2, §3, §4, §5
The development and the degree of hydrocephalus were quantified by calculating the chamber/brain volume ratio. The area of the chambers was outlined manually in each section, and the whole volume was calculated as the sum of the areas multiplied with the thickness of the sections (1 mm). The same method was used for the determination of the […].

[3] = test system: MBP induced formation of EAE in PJSJL mice; conditions: cited from earlier work
[4] = test system: LPS induced septic shock in normal BALB/c mice; conditions: cited from earlier work
[5] = Example 2, doxycycline 1 mg/kg, trans-resveratrol 0,4 mg/kg bodymass
[6] = Example 3, 4-HQ 20 mg/kg, trans-resveratrol 0,4 mg/kg bodymass
[7] = Example 4, Carb 2 mg/kg, trans-resveratrol 0.4 mg/kg bodymass
[8] = Example 1, doxycycline 1 mg/kg, estriol 0,4 mg/kg bodymass

SMILES | CC/control tube (demyelinization) [1, 5] | CC/control tube (demyelinization) [1, 6] | CC/control tube (demyelinization) [1, 7] | Chamber/brain vol. ratio (hydrocephalus) [2, 5] | Chamber/brain vol. ratio (hydrocephalus) [2, 6] | Chamber/brain vol. ratio (hydrocephalus) [2, 7] | MBP induced formation of EAE [3] | prevention of LPS induced septic shock [4] | CC/control tube (demyelinization) [1, 8] | Chamber/brain vol. ratio (hydrocephalus) [2, 8]
Oc1ccc(/C=C/c2cc(O)cc(O)c2)cc1 [resveratrol, trans-resveratrol] | 1.3 ± 0.09 | 1.3 ± 0.09 | 1.3 ± 0.09 | 0.138 ± 0.017 | 0.138 ± 0.017 | 0.138 ± 0.017 |  |  |  | 
CN(C)CC(=O)Nc1ccc2[nH]c(=O)c3ccccc3c2c1.Cl [PJ-34, N-(6-oxo-5 ,6-dihydrophenanthridin-2-yl)-N,N-dimethylacetamide.HCl] |  |  |  |  |  |  | effectively decreased | successful in preventing LPS induced septic shock |  | 
C[C@H]1c2cccc(O)c2C(=O)C2=C(O)[C@]3(O)C(=O)C(C(N)=O)=C(O)[C@@H](N(C)C)[C@@H]3[C@@H](O)[C@@H]21 [doxycycline] | 1.2 ± 0.17 |  |  | 0.117 ± 0.02 |  |  |  |  | 1.1 ± 0.18 | 0.128 ± 0.012
C[C@]12CC[C@@H]3c4ccc(O)cc4CC[C@H]3[C@@H]1C[C@@H](O)[C@@H]2O [estriol] |  |  |  |  |  |  |  |  | 1.2 ± 0.13 | 0.134 ± 0.02
